# PMC5515969, “Effects of 31 FDA approved small-molecule kinase inhibitors on isolated rat liver mitochondria” (Archives of Toxicology, 2016)
# Like-named read-outs stand apart in the source and are kept apart here.
# Legend:
# [1] = test system: isolated rat liver mitochondria; experiment: Mitochondrial oxygen consumption (glutamate/malate or succinate driven, state 4 and state 3); type: biochemical; conditions: DMSO treated samples set as 1; for State 3 respiration driven by succinate at 10XCmax: key: 0 indicates that the drug had no effects (negative); for State 3 respiration driven by succinate at 1XCmax: key: 0 indicates that the drug had no effects (negative)
# How it was run: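 Rat liver mitochondria (1 mg/ml protein) exposed 5 min to kinase inhibitors in 0.1% DMSO, then O2 consumption measured by Clark-type electrode with glutamate/malate or succinate (state 4), ADP added after 3 min (state 3). Rates normalized to 0.1% DMSO controls set to 1.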
# RCC III = RCC III activity in submitochondrial particles; type: biochemical, rat; parameters: key to RCC III at 100XCmax: activity relative to DMSO-treated controls (control set as 1 = 100%); conditions: 100XCmax
# How it was run: (§1)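 Kinase inhibitors were preincubated 15 min with submitochondrial particles (1 mg/ml) before complex activities were measured. RCC I was the rotenone-sensitive portion (activity without minus with rotenone). RCC I/V was read at 340 nm and RCC II at 600 nm every 1 min for 6 min. RCC III and IV were read at 550 nm every 10 s for 2 min. Activities are normalized to DMSO controls set as 1.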
# RCC IV = RCC IV activity in submitochondrial particles; type: biochemical, rat; parameters: key to RCC IV at 50XCmax / RCC IV at 100XCmax: activity relative to DMSO-treated controls (control set as 1 = 100%); conditions: 50XCmax; DMSO treated samples set as 1; in %
# How it was run: as §1
# [2] = test system: isolated rat liver mitochondria; experiment: Mitochondrial inner membrane potential (MMP), Rhodamine 123; type: biochemical; conditions: difference in signal between KI and DMSO treated samples at the end of experiments
# Excerpt: Fig. 3 KI effects on mitochondrial inner membrane potential (MMP). […] In a, c, data are means and standard derivations from three separate experiments. *p < 0.05 as compared to DMSO-treated samples at the end of experiments. In b, data are means of two independent experiments
# [3] = test system: isolated rat liver mitochondria; experiment: Mitochondrial swelling (absorbance at 535 nm); type: biochemical; conditions: difference in signal between KI and DMSO treated samples at the end of experiments; for Swelling 5XCmax: key: 0 indicates that the drug had no effects (negative)
# [4] = test system: isolated rat liver mitochondria; conditions: positive control alamethicin treated samples
# [5] = cited from earlier work
# [6] = cited from earlier work; remark: listed apart in the source
# [7] = test system: isolated rat liver mitochondria; experiment: Mitochondrial ROS production (CM-H2DCFDA); conditions: DMSO treated samples set as 1
smiles,measurement,setting,value
COC(=O)c1ccc2c(c1)NC(=O)/C2=C(\Nc1ccc(N(C)C(=O)CN2CCN(C)CC2)cc1)c1ccccc1 [Nintedanib],State 3 respiration driven by glutamate/malate at 1XCmax,[1]; 1XCmax,0
same,State 3 respiration driven by succinate at 1XCmax,[1]; 1XCmax,0
same,State 4 respiration driven by glutamate/malate at 1XCmax,[1]; 1XCmax,0
same,State 4 respiration driven by succinate at 1XCmax,[1]; 1XCmax,0
same,State 3 respiration driven by glutamate/malate at 2.5XCmax,[1]; 2.5XCmax,0
same,State 3 respiration driven by succinate at 2.5XCmax,[1]; 2.5XCmax,0
same,State 4 respiration driven by glutamate/malate at 2.5XCmax,[1]; 2.5XCmax,0
same,State 4 respiration driven by succinate at 2.5XCmax,[1]; 2.5XCmax,0
same,State 3 respiration driven by glutamate/malate at 5XCmax,[1]; 5XCmax,0
same,State 3 respiration driven by succinate at 5XCmax,[1]; 5XCmax,0
same,State 4 respiration driven by glutamate/malate at 5XCmax,[1]; 5XCmax,0
same,State 4 respiration driven by succinate at 5XCmax,[1]; 5XCmax,0
same,State 3 respiration driven by glutamate/malate at 10XCmax,[1]; 10XCmax,0
same,State 3 respiration driven by succinate at 10XCmax,[1]; 10XCmax,0
same,State 4 respiration driven by glutamate/malate at 10XCmax,[1]; 10XCmax,0
same,State 4 respiration driven by succinate at 10XCmax,[1]; 10XCmax,0
same,State 3 respiration driven by glutamate/malate at 20XCmax,[1]; 20XCmax,0
same,State 3 respiration driven by succinate at 20XCmax,[1]; 20XCmax,0
same,State 4 respiration driven by glutamate/malate at 20XCmax,[1]; 20XCmax,0
same,State 4 respiration driven by succinate at 20XCmax,[1]; 20XCmax,0
same,State 3 respiration driven by glutamate/malate at 30XCmax,[1]; 30XCmax,0
same,State 3 respiration driven by succinate at 30XCmax,[1]; 30XCmax,0
same,State 4 respiration driven by glutamate/malate at 30XCmax,[1]; 30XCmax,0
same,State 4 respiration driven by succinate at 30XCmax,[1]; 30XCmax,0
same,State 3 respiration driven by glutamate/malate at 50XCmax,[1]; 50XCmax,0
same,State 3 respiration driven by succinate at 50XCmax,[1]; 50XCmax,0
same,State 4 respiration driven by glutamate/malate at 50XCmax,[1]; 50XCmax,0
same,State 4 respiration driven by succinate at 50XCmax,[1]; 50XCmax,0
same,State 3 respiration driven by glutamate/malate at 100XCmax,[1]; 100XCmax,0
same,State 3 respiration driven by succinate at 100XCmax,[1]; 100XCmax,0
same,State 4 respiration driven by glutamate/malate at 100XCmax,[1]; 100XCmax,0
same,State 4 respiration driven by succinate at 100XCmax,[1]; 100XCmax,0
same,RCC III at 100XCmax,RCC III,0
same,RCC IV at 50XCmax,RCC IV,0
same,MMP measured by Rhodamine 123 at 1XCmax,[2]; 1XCmax,0
same,MMP measured by Rhodamine 123 at 2.5XCmax,[2]; 2.5XCmax,0
same,MMP measured by Rhodamine 123 at 5XCmax,[2]; 5XCmax,0
same,MMP measured by Rhodamine 123 at 10XCmax,[2]; 10XCmax,0
same,MMP measured by Rhodamine 123 at 20XCmax,[2]; 20XCmax,0
same,MMP measured by Rhodamine 123 at 30XCmax,[2]; 30XCmax,0
same,MMP measured by Rhodamine 123 at 50XCmax,[2]; 50XCmax,0
same,MMP measured by Rhodamine 123 at 100XCmax,[2]; 100XCmax,0
same,Swelling 1XCmax,[3]; 1XCmax,0
same,Swelling 2.5XCmax,[3]; 2.5XCmax,0
same,Swelling 5XCmax,[3]; 5XCmax,0
same,Swelling 10XCmax,[3]; 10XCmax,0
same,Swelling 20XCmax,[3]; 20XCmax,0
same,Swelling 30XCmax,[3]; 30XCmax,0
same,Swelling 50XCmax,[3]; 50XCmax,0
same,Swelling 100XCmax,[3]; 100XCmax,0
same,Cytochrome c release 1XCmax,[4]; 1XCmax,0
same,Cytochrome c release 2.5XCmax,[4]; 2.5XCmax,0
same,Cytochrome c release 5XCmax,[4]; 5XCmax,0
same,Cytochrome c release 10XCmax,[4]; 10XCmax,0
same,Cytochrome c release 20XCmax,[4]; 20XCmax,0
same,Cytochrome c release 30XCmax,[4]; 30XCmax,0
same,Cytochrome c release 50XCmax,[4]; 50XCmax,0
same,Cytochrome c release 100XCmax,[4]; 100XCmax,0
same,Cmax,"[5]; human therapeutic Cmax at FDA recommended dosages, ref product labeling and drug approval packages at the official FDA website",0.06 µM
same,Cmax (ng or µg/ml),"[5]; human therapeutic maximal blood concentration, ref product labeling",0.0349 µg/mL
same,Cmax,"[5]; read-out: Cmax at µM, human therapeutic maximal blood concentration, ref product labeling",0.06 µM
same,DILI potential (based on labeling),"[6]; 1 DILI positive, 0 negative according to labeling, ref product labeling",1
same,Labeling for DILI,"[6]; BBW: black box warning, W&P: Warnings and Precautions, ref product labeling",W&P: ALT↑
same,labeling for DILI,"[6]; W&P warnings and precautions, BBW black box warnings, ref FDA product labeling",W&P: ALT↑/monitoring
same,DILI potential (based on labeling),[6]; ref FDA product labeling,1
same,ROS measured by CM-H2DCFDA at 1XCmax,[7]; 1XCmax,0
same,ROS measured by CM-H2DCFDA at 2.5XCmax,[7]; 2.5XCmax,0
same,ROS measured by CM-H2DCFDA at 5XCmax,[7]; 5XCmax,0
same,ROS measured by CM-H2DCFDA at 10XCmax,[7]; 10XCmax,0
same,ROS measured by CM-H2DCFDA at 20XCmax,[7]; 20XCmax,0
same,ROS measured by CM-H2DCFDA at 30XCmax,[7]; 30XCmax,0
same,ROS measured by CM-H2DCFDA at 50XCmax,[7]; 50XCmax,0
same,ROS measured by CM-H2DCFDA at 100XCmax,[7]; 100XCmax,0
